Laboratory results: publication PMC9323733, “Efficacy of Vafidemstat in Experimental Autoimmune Encephalomyelitis Highlights the KDM1A/RCOR1/HDAC Epigenetic Axis in Multiple Sclerosis” (Pharmaceutics, 2022)

How the values were obtained:
Type in all cases: in vivo, mouse
[1] = system: spinal cord of EAE mice; test: EAE, inflammatory mediators in spinal cord protein extracts (ELISA); details: ORY-2001 0.5 mg/kg; for IFNγ and IP-10 levels in spinal cord / IL-1β levels in spinal cord: disease peak, FTY720 1.0 mg/kg
Source text: (§1) For mechanistic studies in the EAE model, animals were divided into two groups, and samples were collected on day 26 post-immunization (sub-chronic phase), 3 days after the last dose, or on day 17 post-immunization for evaluating the effector phase. For this, mice were euthanized by intracardiac perfusion with saline (0.9%NaCl in H2O MilliQ) after pentobarbital anesthesia (Doletal), and blood samples, spleen, draining lymph nodes (DLNs: cervical, inguinal and axillary), brain, and spinal cord were removed. Serum samples were used for autoantibodies determination. Single-cell suspensions were obtained from spleen or pooled DLNs and used for the determination of cell number and auto-reactive and inflammatory responses, as described later. Brain and spinal segments of the cervical and lumbar regions were prepared separately and processed for RNA isolation, protein extraction, and histopathological analysis. Proteins were extracted from cervical and lumbar segments of spinal cord and brain from EAE mice via homogenization (50 mg tissue/mL) in lysis buffer (50 mM Tris-HCl, pH 7.4, 0.5 mM DTT, and 10 µg/mL proteinase inhibitors PMSF, pepstatin, and leupeptin). Samples were centrifuged (20.000× g, 15 min, 4 °C), and the supernatants were assayed for protein concentration (using Bradford method) and for cytokine/chemokine contents by using specific sandwich ELISAs according to manufacturer’s recommendations (BD Bioscience, Heidelberg, Germany and Peprotech, London, UK). In the TMEV model on day 86 after infection, mice were anesthetized and perfused transcardially, as described above. Spinal cords were obtained via extrusion with saline and prepared for further study.

[2] = system: spleen and lymph nodes of EAE mice; test: EAE, cell number in spleen and lymph nodes, flow cytometry of CD4 T cells; details: ORY-2001 0.5 mg/kg; for CD4+ T cell population of the lymph nodes / cellularity in lymph nodes / number of effector T cells in lymph nodes: FTY720 1.0 mg/kg
Source text: as §1
For the identification of naïve, memory, and effector T cells, lymph nodes were isolated from different EAE groups at the peak of the disease. Cells were collected and distributed into polystyrene tubes for flow cytometry at 0.5 × 10^6 cells/tube and washed twice with washing buffer (10% FBS, 1% sodium azide in PBS; 300 g 5 min 4 °C). Before specific staining, cells were blocked with mouse BD Fc block to avoid nonspecific binding to Fc- receptors and marked with 7-AAD (7-amino-actinomycin D, Calbiochem, San Diego, CA, USA) to distinguish dead cells. Then, cells were incubated with PerCP/Cy5.5 conjugated anti-CD4, APC conjugated anti- CD62L (2 µg/mL), and PE conjugated anti-CD44 mAbs (0.5 µg/mL), following manufacturer’s recommendations (BioLegend) (Supplementary Materials Table S4). Briefly, after washing, cells were stained for 30 min at 4 °C, washed again, and analyzed in a FACSCalibur flow cytometer (BD Pharmingen, Le Pont-de-Claix, France). We used isotype-matched antibodies as controls.

[3] = system: spinal cord of EAE mice; test: EAE, histopathology of spinal cord (demyelination plaques, infiltration); details: ORY-2001 0.5 mg/kg; for infiltrating/demyelinating plaques in spinal cord: day 17, FTY720 1.0 mg/kg
Description: Cervical and lumbar spinal cord segments of spinal cords obtained from EAE mice sacrificed on day 17 or 26 post-immunization were divided and processed for inclusion and sectioning in paraffin and for inclusion in an optimal cutting temperature (OCT) compound and future cryosectioning of the samples. Spinal cord segments were immediately fixed with buffered 10% formalin for 48 h, dehydrated and included in paraffin using standard techniques. For a preliminary analysis, transversal sections (4 µm thickness) were stained with Luxol fast blue, cresyl violet, and hematoxylin following the Klüver–Barrera technique and were analyzed for the presence of areas of demyelination and cell infiltration using a light microscope (Leica, DM2000). After hematoxylin/eosin staining in the TMEV model, cell infiltration in the cervical and thoracic spinal cord was evaluated according to the criteria of Mansilla et al.: score 0: no lesion; 1: cellular infiltration only in the meninges; 2: very discrete and superficial infiltrates in the parenchyma; 3: moderate infiltration (less than 25%) in the white matter; 4: severe infiltration (less than 50%) in the white matter; and 5: high severe infiltration (>50%) in the white matter. The remaining spinal cord segments from EAE mice and from mice of the TMEV model were fixed with 4% paraformaldehyde/0.1 M phosphate buffer pH 7.4 for 12 h at 4 °C, cryopreserved in 30% sucrose in PBS for 24 h, embedded in OCT in liquid nitrogen, and stored at −80 °C prior to cryosectioning and immunohistochemistry. 20 and 30 µm-thick transversal cryostat sections from Tissue Tek embedded tissue were obtained from EAE and TMEV samples, respectively, and kept in a cryoprotection solution (30% ethylene glycol, 10 mg/mL polyvinylpyrrolidone-40 (PVP-40), 300 mg/mL sucrose in 60 mM PB) at −20 °C. Mouse #6 from the TMEV + vehicle group died on day 77 post-infection and was therefore not included.

[4] = system: spleen cells of EAE mice; test: EAE, autoreactive response of spleen cells from treated mice (proliferation, cytokines/chemokines); details: ORY-2001 0.5 mg/kg; for IFNγ and IL-4 in Con A-stimulated spleen cells: FTY720 1.0 mg/kg
Description: Spleen and draining lymph node (DLN) cells (10^6/mL) collected from EAE mice were stimulated in complete medium (RPMI 1640 containing 10% FBS, 50 µM 2-ME, 2 mM L-glutamine, 100 U/mL penicillin, and 100 µg/mL streptomycin) with 15 µM MOG35–55. After 48 h, cytokine (IL-4, TNF-alpha, IFN-gamma) and chemokine (IP-10 and MCP1) contents in culture supernatants were determined by sandwich ELISAs using capture/biotinylated detection Abs according to the manufacturer’s recommendations. The antibodies used are indicated in Supplementary Materials Table S4. Cell proliferation was evaluated after 72 h by adding 2.5 µCi/mL tritiated-thymidine during the last 8 h of culture and determining cpm incorporation in a Microbeta counter. We used T cell activation with an anti-CD3 […] antibody (1 µg/mL) or ConA (2.5 µg/mL) as controls of unspecific polyclonal stimulation.

| Structure (SMILES) | IFNγ and IP-10 levels in spinal cord [1] | IL-1β levels in spinal cord [1] | CD4+ T cell population of the lymph nodes ([2]; day 17) | cellularity in lymph nodes ([2]; day 17) | number of effector T cells in lymph nodes ([2]; day 17) | infiltrating/demyelinating plaques in spinal cord [3] | IFNγ and IL-4 in Con A-stimulated spleen cells ([4]; day 17) | IFNγ, IL-17 and IP-10 levels in spinal cord ([1]; day 26, ORY-LSD1 180 µg/kg) | IL-4 levels in spinal cord ([1]; day 26, ORY-LSD1 180 µg/kg) | cellularity in spleen ([2]; day 17) | number of immune cells in spleen and lymph nodes ([2]; day 26, ORY-LSD1 180 µg/kg) | plaques with inflammatory infiltrates and areas of demyelination ([3]; day 26, lumbar and cervical, ORY-LSD1 180 µg/kg) | IP-10 and MCP-1 production induced by MOG35–55 ([4]; day 17) | MOG35–55-induced proliferation of spleen cells ([4]; day 17) | TNF-alpha and MCP-1 levels, MOG35–55-specific recall response ([4]; day 26) | IFNγ, IL-17 and IP-10 levels, MOG35–55-specific recall response ([4]; day 26, ORY-LSD1 180 µg/kg) | IL-4 production by spleen cells ([4]; day 26, ORY-LSD1 180 µg/kg) | MOG35–55- and anti-CD3-stimulated proliferation of spleen lymphocytes ([4]; day 26, ORY-LSD1 180 µg/kg) |
| --- | --- | --- | --- | --- | --- | --- | --- | --- | --- | --- | --- | --- | --- | --- | --- | --- | --- | --- |
| CCCCCCCCc1ccc(CCC(N)(CO)CO)cc1 [FTY720, Fingolimod, reference compound] | this decrease did not reach significance | showed the same tendency | increased the CD^4+ T cell population of the lymph nodes | increased the cellularity in lymph nodes | significantly increased | reduced the number and size of demyelinating plaques in cervical but not in lumbar sections | reduced the levels of IFNγ and increased IL-4 release |  |  |  |  |  |  |  |  |  |  |  |
| Nc1nnc(CN[C@@H]2C[C@H]2c2ccc(OCc3ccccc3)cc2)o1 [ORY-2001] | this decrease did not reach significance | significantly reduced the exacerbated levels of IL-1β | increased the CD^4+ T cell population of the lymph nodes | increased the cellularity in lymph nodes | significantly increased | reduced the presence of infiltrating/demyelinating plaques in both cervical and lumbar segments | neither affected such cytokines (at the time of study) nor TNF-alpha | no significant changes | significant increase in the levels of IL-4 | increased it significantly in the spleen | significant increase in the number of immune cells | significantly reduced the number of plaques | significant increase in the production of the pro-inflammatory chemokines IP-10 and MCP-1 | significantly reduced the MOG35–55-induced proliferation of spleen cells | significantly reduced the levels of TNF-alpha and MCP-1 | produced equivalent levels of IFNγ, IL-17, and IP-10 | increased with both treatments | reduced MOG35–55 but not anti-CD3 -stimulated proliferation |
